Like-named read-outs stand apart in the source and are kept apart here.
Legend:
NMDA receptors = biological target: T1, NMDA receptors (Rattus norvegicus, UniProt P35439); assay: Patch clamp, NMDA-induced currents in hippocampal neurones; format: cell-based
T1 construct: Patch clamp recordings were made from these neurones; endogenous in cells; host or cells: primary cultured hippocampal neurones from rat embryos (E20 to E21)

[1] = system: maximal electroshock (MES) tonic convulsions; assay: Maximal electroshock (MES) test, anticonvulsive activity; format: in vivo, mice; conditions: for ED50: Mus musculus, ip, read-out: MES ED50
Procedure: (§1) NMR female mice (18-28 g) housed 5 per cage were used for the maximal electroshock (MES) and motor impairment tests. All animals were kept with water and food ad libitum under a 12 hour light-dark cycle (light on at 6 a.m.) and at a controlled temperature (20±0.5C). All experiments were performed between 10 a.m. and 5 p.m. Tested agents were injected 30 min. i.p. before the induction of convulsions if not stated otherwise (see below). All compounds were dissolved in 0.9% saline.
(§2) The MES test was performed together with tests for myorelaxant action (traction reflex) and motor coordination (rotarod). For the traction reflex test mice were placed with their forepaws on a horizontal rod and were required to place all 4 paws on the wire within 10 seconds. To test ataxia (motor coordination) mice were placed on an accelerating rotarod and were required to remain on the rod for 1 minute. […] These tests were followed by MES (100 Hz, 0.5 second shock duration, 50 mA shock intensity, 0.9 ms impulse duration, Ugo Basile) applied through corneal electrodes. The presence of tonic convulsions was scored (tonic extension of hind paws with minimum angle to the body of 90). The aim was to obtain ED50s for all parameters scored (anticonvulsive activity and motor side effects) with use of the Litchfield Wilcoxon test for quantal dose responses. Division of the ED50 for side effects (ataxia or myorelaxation) by the ED50 for antagonism of electroshock convulsions was used as a therapeutic index (TI).
(§3) 4-7 doses of antagonists were tested in each of the in vivo tests (5-8 animals per dose) to allow calculation of graded ED50s according to probit analysis (Litchfield and Wilcoxon) with correction for 0% to 100% effects. ED50s are presented with 95% confidence limits (Cl). Pearson product moment correlation analysis (Sigma Stat, Jandel Scientific) was used to compare in vitro potencies and in vivo anticonvulsant activity.

[2] = Traction reflex test, myorelaxant action; format: in vivo, mice; conditions: mouse, in vivo, ip; NMR female mice, i.p., traction reflex; read-out: Myorelaxation ED50
Procedure: as §1, §2, §3

[3] = Accelerating rotarod test, ataxia (motor coordination); format: in vivo, mice; conditions: mouse, in vivo, ip; NMR female mice, accelerating rotarod
Procedure: as §1, §2, §3

[4] = biological target: NMDA receptor ([3H]-(+)-MK-801 site) (Rattus norvegicus, UniProt P35439); assay: [3H]-(+)-MK-801 receptor binding, rat cortex membranes
[5] = system: myorelaxation (traction reflex); assay: Traction reflex test, myorelaxant action; format: in vivo, mice; conditions: for Therapeutic index (myorelaxation ED50 / MES ED50): ED50 myorelaxation divided by ED50 MES
Procedure: as §1, §2, §3

ataxia (rotarod) = assay: Accelerating rotarod test, ataxia (motor coordination); format: in vivo, mice; conditions: for Therapeutic index (ataxia ED50 / MES ED50): ED50 ataxia divided by ED50 MES
Procedure: as §1, §2, §3

[6] = Table 1, mean, N=6, read-out: NMDA IC50
[7] = NMR female mice, i.p. 30 min before convulsions
[8] = read-out: [^3H]MK-801 Ki, rat cortex membranes, [3H]-(+)-MK-801 5 nM, glycine 10 μM, glutamate 10 μM, mean

| Molecule | IC50 (NMDA receptors; [6]) [µM] | ED50 [1, 7] [mg/kg] | ED50 at 30 min [2] [mg/kg] | ED50 at 30 min [3] [mg/kg] | Ki [4] [µM] | Therapeutic index (myorelaxation ED50 / MES ED50) [5] | Therapeutic index (ataxia ED50 / MES ED50) (ataxia (rotarod)) | MES ED50 [1, 7] | Myorelaxation ED50 ([5]; NMR female mice, i.p., traction reflex) | Ataxia ED50 (ataxia (rotarod); NMR female mice, i.p., accelerating rotarod) | Ki [4, 8] [µM] | ED50 [1] [mg/kg] | IC50 (NMDA receptors) [µM] |
| --- | --- | --- | --- | --- | --- | --- | --- | --- | --- | --- | --- | --- | --- |
| C=C[C@@]1(C)C[C@H](C)C[C@@](C)(N)C1 (relative stereo) [MRZ 2009, cis-3-Vinyl-1,3,trans-5-trimethylcyclohexylamine] | 58.2 | > 50 | > 50 | > 50 | 22.3 | – | – | – | – | – | – | – | – |
| CC1=CC(C)(C)CC(C)(C)C1N.Cl (stereo not shown) [MRZ 2/657, 1-amino-2,4,4,6,6-pentamethyl-cyclohex-2-en Hydrochloride] | – | > 30 | > 30 | > 30 | 13.4 | – | – | – | – | – | – | – | – |
| CC(N)C1=CC(C)(C)CC(C)(C)C1 (stereo not shown) [MRZ 2/749, 1-(1-Aminoethyl)-3,3,5,5-tetramethylcyclohex-1-ene] | – | 26.6 | 38.6 | 37.1 | 10.8 | 1.5 | 1.4 | – | – | – | – | – | – |
| CC1(C)C=C(N)CC(C)(C)C1 [MRZ 2/1005, 1-Amino-3,3,5,5-Tetramethyl-1-cyclohexene] | – | 20.5 | 35.7 | 26.8 | 13.6 | 1.7 | 1.3 | – | – | – | – | – | – |
| CC1(C)CC(=CCN)CC(C)(C)C1 [MRZ 2/1021, 2-(3,3,5,5-Tetramethylcyclohexylidene)ethanamine] | 0.33 | 29.5 | 16.5 | 23.1 | 2.15 | 0.6 | 0.8 | – | – | – | – | – | – |
| CC1=CC(N)CC(C)(C)C1 (stereo not shown) [MRZ 2/1023, 1-Amino-3,3,5-trimethyl-2-cyclohexene] | – | – | – | – | – | – | – | >50 | >50 | >50 | 49.6 | – | – |
| CC1=CC(C)(N)CC(C)(C)C1 (stereo not shown) [MRZ 2002, 1,3,5,5-Tetramethyl-2-cyclohexen-1-amine] | – | – | 34 | 53 | 5.7 | 1.3 | 2.0 | – | – | – | – | 26.1 | – |
| C=CCC1(N)CC(C)(C)CC(C)(C)C1 [MRZ 2005, 1-Allyl-3,3,5,5-tetramethylcyclohexanamine] | 12.6 | 37.3 | 39.8 | 49.3 | 9.35 | 1.1 | 1.3 | – | – | – | – | – | – |
| CC(N)C=C1CC(C)(C)CC(C)(C)C1 (stereo not shown) [MRZ 2006, 1-(3,3,5,5-Tetramethylcyclohexylidene)-2-propanamine] | – | 57 | 44.6 | 40.9 | 10.1 | 0.8 | 0.7 | – | – | – | – | – | – |
| CCC1(CC)CC(=CC(C)N)CC(C)(C)C1 (stereo not shown) [MRZ 2008, 1-(3,3-Diethyl-5,5-dimethylcyclohexylidene)-2-propanamine] | 2.74 | – | – | – | 8.07 | – | – | – | – | – | – | – | – |
| CC(C)(N)CC1=CC(C)(C)CC(C)(C)C1 [MRZ 2010, 2-Methyl-1-(3,3,5,5-tetramethyl-1-cyclohexen-1-yl)-2-propanamine] | – | – | > 50 | > 50 | 44.9 | – | – | – | – | – | – | > 50 | – |
| C=CCC1(N2CCCCC2)CC(C)(C)CC(C)(C)C1 [MRZ 2013, 1-(1-Allyl-3,3,5,5-tetramethylcyclohexyl)piperidine] | – | – | > 50 | > 50 | 49.2 | – | – | – | – | – | – | > 50 | – |
| C=CC1(CCN)CC(C)(C)CC(C)(C)C1 [MRZ 2014, 2-(1-Vinyl-3,3,5,5-tetramethylcyclohexyl-1)ethylamine] | 0.1 | 47.8 | 13.9 | 25.8 | 3.12 | 0.3 | 0.5 | – | – | – | – | – | – |
| CC(C)=CCC1(N2CCCCC2)CC(C)(C)CC(C)(C)C1 [MRZ 2015, 1-[3,3,5,5-Tetramethyl-1-(3-methyl-2-butenyl)cyclohexyl]piperidine] | – | – | > 50 | > 50 | 83 | – | – | – | – | – | – | > 50 | – |
| C#CCC1(N2CCCCC2)CC(C)(C)CC(C)(C)C1 [MRZ 2016, 1-[3,3,5,5-Tetramethyl-1-(2-propynyl)cyclohexyl]piperidine] | 71.2 | – | > 50 | > 50 | 42.2 | – | – | – | – | – | – | > 50 | – |
| C=CCC(CN)C1(C)CC(C)(C)CC(C)(C)C1 (stereo not shown) [MRZ 2017, 2-(1,3,3,5,5-Pentamethylcyclohexyl)-4-pentenylamine] | 1.19 | 36.9 | 35.6 | 33.7 | 6.79 | 1.0 | 0.9 | – | – | – | – | – | – |
| CC1(C)CC(=CCCN)CC(C)(C)C1 [MRZ 2018, 3-(3,3,5,5-Tetramethylcyclohexylidene)propanamine] | 37.1 | 78.5 | 29.4 | 26.7 | 20.2 | 0.4 | 0.3 | – | – | – | – | – | – |
| CC(C)(N)C=C1CC(C)(C)CC(C)(C)C1 [MRZ 2019, 2-Methyl-1-(3,3,5,5-tetramethylcyclohexylidene)-2-propanamine] | – | – | > 50 | > 50 | 73.1 | – | – | – | – | – | – | > 50 | – |
| CC(CN)=C1CC(C)(C)CC(C)(C)C1 [MRZ 2020, 2-(3,3,5,5-Tetramethylcyclohexylidene)propanamine] | – | 26.1 | 34.5 | 27.6 | 7.45 | 1.3 | 1.1 | – | – | – | – | – | – |
| C=CC1(NC)CC(C)(C)CC(C)(C)C1 [MRZ 2021, N-Methyl-1-ethenyl-3,3,5,5-tetramethylcyclohexylamine] | – | – | 21.4 | 24.7 | 6.54 | 1.6 | 1.8 | – | – | – | – | 13.6 | 12.7 |
| C=CCNC1(C)CC(C)(C)CC(C)(C)C1 [MRZ 2026, N-Allyl-1,3,3,5,5-pentamethylcyclohexanamine] | 29.6 | 25.4 | 26.7 | 37.6 | – | 1.1 | 1.5 | – | – | – | – | – | – |
| Neramexane Sulphate [MRZ 2000, reference compound] | – | – | – | – | – | – | – | – | – | – | 1.68 | – | – |

Source: patent US6828462B2, “Unsaturated 1-amino-alkylcyclohexane NMDA, 5HT3, and neuronal nicotinic receptor antagonists” (Merz Pharma GmbH & Co. KGAA, priority 2001, dated 2004)
